The record followed here is patent US11498923B2 (Merck Sharp & Dohme Corp., priority 2017, dated 2022).

Structures can show the parent of a compound that is named as a salt.

For the experiment, the target named is T1, human A2a receptor (Homo sapiens, UniProt P29274).
T1 construct: purchased Perkin-Elmer RBHA2AM400UA; host or cells: HEK293 cells, used as a membrane preparation
T1 sequence (P29274 whole entry): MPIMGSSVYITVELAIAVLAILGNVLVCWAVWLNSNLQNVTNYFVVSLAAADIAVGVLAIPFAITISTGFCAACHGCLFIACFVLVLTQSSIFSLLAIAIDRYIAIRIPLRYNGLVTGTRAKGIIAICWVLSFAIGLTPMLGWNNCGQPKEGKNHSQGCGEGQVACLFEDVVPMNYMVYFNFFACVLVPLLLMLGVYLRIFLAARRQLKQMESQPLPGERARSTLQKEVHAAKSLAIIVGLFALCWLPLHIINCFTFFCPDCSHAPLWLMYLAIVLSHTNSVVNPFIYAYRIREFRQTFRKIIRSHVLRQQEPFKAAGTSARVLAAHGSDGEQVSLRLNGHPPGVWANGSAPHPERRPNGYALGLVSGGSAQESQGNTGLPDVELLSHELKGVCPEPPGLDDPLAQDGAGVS
In words: A2a receptor competition binding assay (Scintillation Proximity). As to conditions: membranes from HEK293 cells expressing human A2a receptor; 0.5 nM tritiated ligand; Cheng-Prusoff; read-out: A2a Ki. The method, then: Binding affinities of compounds of the invention for the human A2a receptor were determined in a competition binding assay using Scintillation Proximity technology. Thus, 0.3 μg of membranes from HEK293 cells expressing the human A2a receptor were incubated with a compound of the invention at concentrations ranging from 3000 nM to 0.15 nM in a reaction mixture containing also 0.5 nM of a tritiated form of 5-amino-7-[2-phenethyl]-2-(furan-2-yl)-7H-pyrazolo[4,3-e][1,2,4]triazolo[1,5-c]pyrimidine (the tritiated compound) and 100 μg of wheat germ agglutin-coated yttrium silicate SPA beads for one hour at room temperature with agitation. The beads were then allowed to settle to the bottom of the wells for 1 hr, after which the membrane-associated radioactivity was determined by scintillation counting in a TopCount microplate reader. Ki values were determined using the Cheng-Prusoff equation.
Summary of Materials and Methods Used in A2a Activity Determination:
HEK293 cells expressing the human, rat, dog or monkey adenosine 2a receptor (Purchased from Perkin-Elmer #RBHA2AM400UA).
The Tritiated compound was prepared according to published methods.
Wheat germ agglutinin-coated yttrium silicate SPA beads (GE Healthcare #RPNQ0023). Dilute to 25 mg/ml in assay buffer.
Assay Buffer was prepared using Dulbecco's calcium and magnesium free phosphate buffered saline+10 mMMgCl2
Adenosine deaminase from calf intestine, 10 mg/2 ml (Roche #10 102 105 001).
A2a antagonist standard (9-chloro-1-(2-furanyl)-[1,2,4]triazolo1,5-c]quinazolin-5-amine from Tocris Bioscience)
Make eight 1:3 serial dilutions in 100% DMSO from a 3 mM compound stock
Transfer 50 nl of compound into a 384-well OptiPlate (Perkin Elmer).
Typically, final concentrations of compound used in the assay ranged from 3000 nM to 0.152 nM.
Dilute a solution of the Tritiated compound to 1.25 nM in assay buffer. This is a 2.5× solution. The final concentration in the assay is 0.5 nM. Calculate the concentration by counting two 5 μl aliquots.
Use 0.25 ug of membrane/well. Dilute membranes to 9.7 μg/ml in assay buffer. Treat with 20 ug/ml adenosine deaminase (ADA) for 15 minutes at room temperature to degrade endogenous adenosine.
Use 100 μg/well wheat germ agglutinin-coated yttrium silicate SPA beads.
Mix ADA-treated membranes and SPA beads together for 30 min prior to assay.
To the Perkin-Elmer Optiplate-384 containing the compound titration add 20 μl of 2.5× solution of the Tritiated compound and 30 μl of the membrane-bead mixture. Incubate for one hour at room temperature with agitation.
Include total binding (assay buffer+1% DMSO) and non-specific binding (CGS15943, 1 μM) wells.
Allow the beads to settle for one hour.
A curve fitting program (i.e., Prism, Activity Base, Chemcart) is used to determine the EC50. The Ki value is calculated using the Cheng-Prusoff equation. Ki=EC50/(1+(radioligand concentration/Kd))
What is called Ki is a dissociation constant, usually derived from enzyme kinetics or from competition with a known ligand. With `COc1cccc2c1nc(N)n1cc(C(=O)N3CCC4(CCCO4)CC3)nc21` [Ex-230, (5-amino-7-methoxyimidazo[1,2-c]quinazolin-2-yl)(1-oxa-8-azaspiro[4.5]decan-8-yl)methanone], the Ki worked out at 61.1 nM. Take `COc1cccc2c1nc(N)n1cc(Cc3ccc(N4CCN(C(C)=O)CC4)nc3)nc21` [Ex-45, 1-(4-(5-((5-amino-7-methoxyimidazo[1,2-c]quinazolin-2-yl)methyl)pyridin-2-yl)piperazin-1-yl)ethan-1-one]: the Ki was found to be 4.6 nM.

For `COc1cccc2c1nc(N)n1cc(C(=O)N3CCCC(OC)C3)nc21` (centres unmarked) [Ex-240, (5-amino-7-methoxyimidazo[1,2-c]quinazolin-2-yl)(3-methoxypiperidin-1-yl)methanone], the Ki was determined as 30.6 nM. Take `Nc1nc2c(F)cccc2c2nc(CC3CCN(C(=O)c4cccnc4)CC3)cn12` [Ex-317, (4-((5-amino-7-fluoroimidazo-[1,2-c]quinazolin-2-yl)methyl)piperidin-1-yl)(pyridin-3-yl)-methanone]: the Ki stood at 100 nM. The figure for `Nc1nc2c(F)cccc2c2nc(C(=O)N3CCc4cccc(CN5CCN(c6ccc(F)cc6F)CC5)c4C3)cn12` [Ex-247] is 120 nM; for `COc1cccc2c1nc(N)n1cc(Cc3ccc(N4CCOCC4)nc3)nc21` [Ex-39, 7-methoxy-2-((6-morpholinopyridin-3-yl)methyl)imidazo[1,2-c]quinazolin-5-amine] it is 9.8 nM. Consider `COc1cccc2c1nc(N)n1cc(Cc3c(F)cccc3-c3ccc(C(F)(F)F)nc3)nc21` [Ex-79, 2-(2-fluoro-6-(6-(trifluoromethyl)pyridin-3-yl)benzyl)-7-methoxyimidazo[1,2-c]quinazolin-5-amine], for which the inhibitory constant (Ki) came to 2.4 nM. With `Nc1nc2c(F)cccc2c2nc(C(=O)NCc3ccccc3N3CCOCC3)cn12` [Ex-250, 5-amino-7-fluoro-N-(2-morpholinobenzyl)imidazo [1,2-c]quinazoline-2-carboxamide], the Ki turned out to be 2 nM.

Turning to `CC(C)(C)OC(=O)N1CCC2(CCN(C(=O)c3cn4c(N)nc5c(F)cccc5c4n3)C2)C1` (centres unmarked) [Ex-259, tert-butyl 7-(5-amino-7-fluoroimidazo[1,2-c]quinazoline-2-carbonyl)-2,7-diazaspiro[4.4]nonane-2-carboxylate], the inhibition constant (Ki) was 29 nM. The figure for `Cn1c(NC(=O)c2ccc(Cc3cn4c(N)nc5c(F)cccc5c4n3)cc2)nc2ccccc21` [Ex-86, 5-amino-7-fluoro-2-(4-((1-methyl-1H-benzo[d]imidazol-2-yl)carbamoyl)benzyl)imidazo[1,2-c]quinazolin-6-ium formate] is 44 nM; for `Nc1nc2c(F)cccc2c2nc(CN3CCOc4cccnc43)cn12` [Ex-118, 2-((2,3-dihydro-4H-pyrido[3,2-b][1,4]oxazin-4-yl)methyl)-7-fluoroimidazo[1,2-c]quinazolin-5-amine] it is 3.9 nM; for `N#Cc1cccc(CC(=O)N2CCc3c(Cc4cn5c(N)nc6c(F)cccc6c5n4)cccc3C2)c1` [Ex-55, 3-(2-(5-((5-amino-7-fluoroimidazo[1,2-c]quinazolin-2-yl)methyl)-3,4-dihydroisoquinolin-2(1H)-yl)-2-oxoethyl)benzonitrile] it is 5.1 nM. The same measure for `COc1cccc2c1nc(N)n1cc(C(=O)N3CCCC(F)(F)CC3)nc21` [Ex-178, (5-amino-7-methoxyimidazo[1,2-c]quinazolin-2-yl)(4,4-difluoroazepan-1-yl)methanone]: 27 nM. The figure for `CC(C)(C)OC(=O)N1CCC2(CCCN(C(=O)c3cn4c(N)nc5c(F)cccc5c4n3)C2)C1` (centres unmarked) [Ex-260, tert-butyl 7-(5-amino-7-fluoroimidazo[1,2-c]quinazoline-2-carbonyl)-2,7-diazaspiro[4.5]decane-2-carboxylate] is 15 nM. `Nc1nc2c(F)cccc2c2nc(CN3CCN(Cc4ccccc4)CC3)cn12` [Ex-111, 2-((4-benzylpiperazin-1-yl)methyl)-7-fluoroimidazo[1,2-c]quinazolin-5-amine]: the Ki came to 160 nM. The same measure for `COc1cccc2c1nc(N)n1cc(Cc3c(O)cccc3F)nc21` [Ex-31, 2-((5-amino-7-methoxyimidazo[1,2-c]quinazolin-2-yl)methyl)-3-fluorophenol]: 2.1 nM; for `Nc1nc2c(F)cccc2c2nc(Cc3ccccc3-c3ccccc3)cn12` [Ex-27, 2-([1,1′-biphenyl]-2-ylmethyl)-7-fluoroimidazo[1,2-c]quinazolin-5-amine]: 2.6 nM; for `Nc1nc2c(F)cccc2c2nc(COc3ccccc3)cn12` [Ex-146, 7-fluoro-2-(phenoxymethyl)imidazo[1,2-c]quinazolin-5-amine]: 33 nM.

Consider `Nc1nc2cc(N3CCOCC3)c(F)cc2c2nc(Cc3ccccc3)cn12` [Ex-13, 2-benzyl-9-fluoro-8-morpholinoimidazo[1,2-c]quinazolin-5-amine], for which the Ki worked out at 920 nM.

As to `COc1cccc2c1nc(N)n1cc(C(=O)N3CCCC4(CCCO4)C3)nc21` (centres unmarked) [Ex-205, (5-amino-7-methoxyimidazo[1,2-c]quinazolin-2-yl)(1-oxa-7-azaspiro[4.5]decan-7-yl)methanone], the Ki stood at 13 nM. The figure for `COc1cccc2c1nc(N)n1cc(Cc3ccccc3)nc21` [Ex-01, 2-benzyl-7-methoxyimidazo[1,2-c]quinazolin-5-amine] is 0.4 nM; for `Nc1nc2c(F)cccc2c2nc(CC3CCN(C(=O)c4cnccn4)CC3)cn12` [Ex-321, (4-((5-amino-7-fluoroimidazo[1,2-c]quinazolin-2-yl)-methyl)piperidin-1-yl)(pyrazin-2-yl)-methanone] it is 34 nM; for `COc1cccc2c1nc(N)n1cc(C(=O)N3CCOC[C@@H]3C)nc21` [Ex-184, (S)-(5-amino-7-methoxyimidazo[1,2-c]quinazolin-2-yl)(3-methylmorpholino) methanone] it is 90 nM. On to `COc1cccc2c1nc(N)n1cc(CN3CCN4CCCC[C@@H]4C3)nc21` [Ex-132, (R)-7-methoxy-2-((octahydro-2H-pyrido[1,2-a]pyrazin-2-yl)methyl)imidazo[1,2-c]quinazolin-5-amine], for which the Ki amounted to 150 nM. The figure for `Nc1nc2c(F)cccc2c2nc(CC3CCN(C(=O)c4ccccc4)CC3)cn12` [Ex-315, (4-((5-amino-7-fluoro-imidazo[1,2-c]quina-zolin-2-yl)methyl)-piperidin-1-yl)-(phenyl)methanone] is 82 nM; for `Nc1nc2ccccc2c2nc(-c3cccc(Br)c3)cn12` [Ex-105, 2-(3-bromophenyl)imidazo[1,2-c]quinazolin-5-amine] it is 160 nM; for `COc1cccc2c1nc(N)n1cc(C(=O)N3CCCC(F)(F)C3)nc21` [Ex-241, (5-amino-7-methoxyimidazo[1,2-c]quinazolin-2-yl)(3,3-difluoropiperidin-1-yl)methanone] it is 13 nM.

Consider `Nc1nc2c(F)cccc2c2nc(C(=O)N3CCC4(CCN(CCc5ccc(F)cc5)C4)C3)cn12` (centres unmarked) [Ex-281, (5-amino-7-fluoroimidazo[1,2-c]quinazolin-2-yl)(7-(4-fluorophenethyl)-2,7-diazaspiro[4.4]nonan-2-yl)methanone], for which the Ki was 170 nM. The figure for `COc1cccc2c1nc(N)n1cc(Cc3cccc(N4CCOCC4)c3)nc21` [Ex-28, 7-methoxy-2-(3-morpholinobenzyl)imidazo[1,2-c]quinazolin-5-amine] is 2.1 nM; for `COc1cccc2c1nc(N)n1cc(C(=O)N3CCC4CCCCC4C3)nc21` (centres unmarked) [Ex-192, (5-amino-7-methoxyimidazo[1,2-c]quinazolin-2-yl)(octahydroisoquinolin-2(1H)-yl)methanone] it is 11 nM. The same measure for `COc1cccc2c1nc(N)n1cc(C(=O)N3CCC4OCCC43)nc21` (centres unmarked) [Ex-220, (5-amino-7-methoxyimidazo[1,2-c]quinazolin-2-yl)(hexahydro-4H-furo[3,2-b]pyrrol-4-yl)methanone]: 24 nM; for `Nc1nc2c(F)cccc2c2nc(C(=O)NCc3cccc(CN4CCOCC4)c3)cn12` [Ex-258, 5-amino-7-fluoro-N-(3-(morpholinomethyl)benzyl) imidazo[1,2-c]quinazoline-2-carboxamide]: 2.3 nM.
